{
  "source": "paper PMC12504763",
  "about": "“Antiproliferation, 3D-multicellular spheroid and VEGFR-2 inhibitory properties of spiroindolin-2-ones with phosphonate function” (Scientific Reports, 2025)",
  "key": {"[1]": {"system": "TNF-α", "experiment": "TNF-α inhibitory properties (ELISA), PaCa2 cell lysate", "assay_type": "cell-based, human", "conditions": "at 10 μM; for TNF-α pg/mL (± SEM) PaCa2: control 111.8 ± 2.0"}, "[2]": {"target": "T1, COX-1 (Ovis aries, UniProt P05979)", "T1 construct": "purchased BioVision incorporated USA K548–100", "T1 sequence (P05979 25-600)": "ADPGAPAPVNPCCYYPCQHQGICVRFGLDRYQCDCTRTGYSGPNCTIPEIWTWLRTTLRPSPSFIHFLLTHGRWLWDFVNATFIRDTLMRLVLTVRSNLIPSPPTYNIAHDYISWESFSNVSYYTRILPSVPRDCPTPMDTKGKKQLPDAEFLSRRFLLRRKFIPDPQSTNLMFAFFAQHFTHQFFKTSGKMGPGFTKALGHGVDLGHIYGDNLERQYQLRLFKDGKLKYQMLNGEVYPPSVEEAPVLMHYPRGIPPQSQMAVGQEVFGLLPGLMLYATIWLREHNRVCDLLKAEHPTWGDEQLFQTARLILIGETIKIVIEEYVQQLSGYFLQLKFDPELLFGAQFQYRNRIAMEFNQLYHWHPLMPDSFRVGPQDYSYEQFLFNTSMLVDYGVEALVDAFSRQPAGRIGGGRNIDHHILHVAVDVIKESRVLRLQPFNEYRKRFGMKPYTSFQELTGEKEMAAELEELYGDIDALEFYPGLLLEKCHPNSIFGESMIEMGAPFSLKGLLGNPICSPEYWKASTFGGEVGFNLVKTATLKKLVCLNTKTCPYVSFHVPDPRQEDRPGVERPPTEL", "experiment": "biochemical", "conditions": "3 replicates, read-out: % Inhibition of COX-1 ± SEM"}, "[3]": {"system": "TNF-α", "experiment": "TNF-α inhibitory properties (ELISA), MCF7 cell lysate", "assay_type": "cell-based, human", "conditions": "at 10 μM; for TNF-α pg/mL (± SEM) MCF7: control 83.26 ± 1.1"}, "[4]": {"system": "HCT116 (colon) cancer cell line", "experiment": "2D-monolayer antiproliferation (MTT) against HCT116", "assay_type": "cell-based, human"}, "[5]": {"target": "T2, VEGFR-2 (Homo sapiens, UniProt P35968)", "T2 construct": "endogenous in cells; host or cells: HCT116, PaCa2, MCF7 (human cancer cell lines, ATCC origin)", "T2 sequence (P35968 20-1356)": "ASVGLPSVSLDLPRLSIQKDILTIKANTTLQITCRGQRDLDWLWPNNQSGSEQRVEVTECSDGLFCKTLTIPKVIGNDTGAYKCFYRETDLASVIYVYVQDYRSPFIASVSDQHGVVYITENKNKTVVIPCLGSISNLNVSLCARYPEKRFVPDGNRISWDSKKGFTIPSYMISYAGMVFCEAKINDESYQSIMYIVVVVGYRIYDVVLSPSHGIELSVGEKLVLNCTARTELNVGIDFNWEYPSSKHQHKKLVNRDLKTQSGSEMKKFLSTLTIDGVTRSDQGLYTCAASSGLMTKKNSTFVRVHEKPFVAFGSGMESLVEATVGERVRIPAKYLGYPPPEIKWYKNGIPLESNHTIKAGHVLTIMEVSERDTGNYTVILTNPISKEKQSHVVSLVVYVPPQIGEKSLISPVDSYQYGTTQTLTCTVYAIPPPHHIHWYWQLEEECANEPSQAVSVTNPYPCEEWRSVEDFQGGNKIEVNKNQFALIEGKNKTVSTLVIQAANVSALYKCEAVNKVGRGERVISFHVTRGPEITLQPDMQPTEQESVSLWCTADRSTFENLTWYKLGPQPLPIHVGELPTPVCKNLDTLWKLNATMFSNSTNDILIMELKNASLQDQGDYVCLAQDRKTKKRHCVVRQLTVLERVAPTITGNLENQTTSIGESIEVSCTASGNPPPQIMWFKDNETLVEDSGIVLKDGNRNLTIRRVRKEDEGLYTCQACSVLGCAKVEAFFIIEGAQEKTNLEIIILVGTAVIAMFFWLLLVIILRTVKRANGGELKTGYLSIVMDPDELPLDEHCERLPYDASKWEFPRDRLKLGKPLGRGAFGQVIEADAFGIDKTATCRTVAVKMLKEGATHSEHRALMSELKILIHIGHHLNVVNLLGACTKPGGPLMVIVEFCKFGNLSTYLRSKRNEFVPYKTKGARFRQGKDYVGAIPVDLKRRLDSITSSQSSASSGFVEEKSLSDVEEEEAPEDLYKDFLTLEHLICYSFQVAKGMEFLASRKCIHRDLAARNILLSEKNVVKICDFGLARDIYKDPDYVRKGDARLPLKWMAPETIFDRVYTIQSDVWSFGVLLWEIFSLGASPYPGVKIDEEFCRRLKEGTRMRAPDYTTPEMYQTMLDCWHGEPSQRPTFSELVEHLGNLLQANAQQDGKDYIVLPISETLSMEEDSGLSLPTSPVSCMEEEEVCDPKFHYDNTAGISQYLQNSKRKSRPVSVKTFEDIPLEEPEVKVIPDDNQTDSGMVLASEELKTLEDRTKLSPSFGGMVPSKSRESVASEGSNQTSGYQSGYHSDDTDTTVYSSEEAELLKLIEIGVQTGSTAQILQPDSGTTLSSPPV", "experiment": "cell-based", "assay_type": "cell-based"}, "[6]": {"system": "TNF-α", "experiment": "TNF-α inhibitory properties (ELISA), HCT116 cell lysate", "assay_type": "cell-based, human", "conditions": "at 10 μM; for TNF-α pg/mL (± SEM) HCT116: control 95.74 ± 0.5"}, "[7]": {"system": "A549 (lung) cancer cell line", "experiment": "2D-monolayer antiproliferation (MTT) against A549", "assay_type": "cell-based, human"}, "[8]": {"target": "T2, VEGFR-2", "experiment": "cell-based", "assay_type": "cell-based", "remark": "listed apart in the source"}, "[9]": {"target": "T3, COX-2 (Homo sapiens, UniProt P35354)", "T3 construct": "purchased BioVision incorporated USA K548–100", "T3 sequence (P35354 18-604)": "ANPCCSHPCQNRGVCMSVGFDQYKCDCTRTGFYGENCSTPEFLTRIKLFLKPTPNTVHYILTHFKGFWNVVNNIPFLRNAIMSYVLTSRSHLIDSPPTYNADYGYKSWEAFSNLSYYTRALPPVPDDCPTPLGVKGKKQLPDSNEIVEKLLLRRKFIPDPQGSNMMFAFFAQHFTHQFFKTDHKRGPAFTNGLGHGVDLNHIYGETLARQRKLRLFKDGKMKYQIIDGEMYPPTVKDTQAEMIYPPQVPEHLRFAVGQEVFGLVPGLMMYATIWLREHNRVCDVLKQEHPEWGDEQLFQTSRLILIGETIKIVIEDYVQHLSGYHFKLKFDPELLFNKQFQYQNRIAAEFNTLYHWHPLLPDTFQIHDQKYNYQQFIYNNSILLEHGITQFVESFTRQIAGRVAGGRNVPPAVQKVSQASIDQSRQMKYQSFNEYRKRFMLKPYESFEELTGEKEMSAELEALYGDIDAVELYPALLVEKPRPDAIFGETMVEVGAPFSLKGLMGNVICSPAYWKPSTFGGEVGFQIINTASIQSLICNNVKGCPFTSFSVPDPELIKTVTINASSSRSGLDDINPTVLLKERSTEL", "experiment": "biochemical"}, "[10]": {"target": "T2, VEGFR-2", "experiment": "cell-based", "assay_type": "cell-based", "remark": "listed apart in the source"}, "[11]": {"system": "MCF7 (breast) cancer cell line", "experiment": "2D-monolayer antiproliferation (MTT) against MCF7", "assay_type": "cell-based, human"}, "[12]": {"system": "RPE1 (normal human immortalized retinal pigment epithelial cell line)", "experiment": "cells", "assay_type": "cell-based"}, "[13]": {"system": "PaCa2 (pancreatic) cancer cell line", "experiment": "2D-monolayer antiproliferation (MTT) against PaCa2", "assay_type": "cell-based, human"}},
  "data": [
    {"smiles": "CCOP(=O)(OCC)N1C/C(=C\\c2ccc(F)cc2)C(=O)C2(C1)C(c1ccc(F)cc1)CN(C)C21C(=O)Nc2ccc(Cl)cc21", "note": "(centres unmarked) [Compound 17f, Diethyl (E)-[5-chloro-5′′-(4-fluorobenzylidene)-4′-(4-fluorophenyl)-1′-methyl-2,4′′-dioxodispiro[indoline-3,2′-pyrrolidine-3′,3′′-piperidin]-1′′-yl]phosphonate]", "values": [
      {"measurement": "TNF-α pg/mL (± SEM) PaCa2", "setting": "[1]", "value": "109.8 ± 4.7", "unit": "pg/mL"},
      {"measurement": "inhibition at 10 µM", "setting": "[2]", "value": "57.6 ± 1.1", "unit": "%"},
      {"measurement": "TNF-α % inhibition MCF7", "setting": "[3]", "value": 1.0, "unit": "%"},
      {"measurement": "TNF-α pg/mL (± SEM) MCF7", "setting": "[3]", "value": "82.45 ± 4.0", "unit": "pg/mL"},
      {"measurement": "IC50", "setting": "[4]; Homo sapiens, HCT-116, MTT, 72 h incubation, HCT116 colon, read-out: IC50, μM ± SEM HCT116", "value": "3.72 ± 0.099", "unit": "µM"},
      {"measurement": "SI (selectivity index) HCT116", "setting": "[4]; IC50 of RPE1 normal cell/IC50 of HCT116", "value": 10.7},
      {"measurement": "inhibition at 10 µM", "setting": "[5]; MCF7", "value": 75.6, "unit": "%"},
      {"measurement": "VEGFR-2 pg/mL ± SEM MCF7", "setting": "[5]; at 10 μM, control 258.70 ± 2.3", "value": "63.20 ± 0.9", "unit": "pg/mL"},
      {"measurement": "TNF-α % inhibition HCT116", "setting": "[6]", "value": 10.7, "unit": "%"},
      {"measurement": "TNF-α pg/mL (± SEM) HCT116", "setting": "[6]", "value": "85.46 ± 1.3", "unit": "pg/mL"},
      {"measurement": "IC50", "setting": "[7]; Homo sapiens, MTT, 72 h incubation, A549 lung, read-out: IC50, μM ± SEM A549", "value": "> 50", "unit": "µM"},
      {"measurement": "SI (selectivity index) A549", "setting": "[7]; IC50 of RPE1 normal cell/IC50 of A549", "value": "< 0.8"},
      {"measurement": "inhibition at 10 µM", "setting": "[8]; PaCa-2, PaCa2", "value": 91.6, "unit": "%"},
      {"measurement": "VEGFR-2 pg/mL ± SEM PaCa2", "setting": "[8]; at 10 μM, control 326.80 ± 1.9", "value": "27.53 ± 1.1", "unit": "pg/mL"},
      {"measurement": "inhibition at 10 µM", "setting": "[9]; 3 replicates, read-out: % Inhibition of COX-2 ± SEM", "value": "60.8 ± 2.7", "unit": "%"},
      {"measurement": "SI (selectivity index, COX-2/COX-1)", "setting": "[9]; at 10 μM", "value": 1.01},
      {"measurement": "inhibition at 10 µM", "setting": "[10]; HCT-116, HCT116", "value": 86.2, "unit": "%"},
      {"measurement": "VEGFR-2 pg/mL ± SEM HCT116", "setting": "[10]; at 10 μM, control 317.80 ± 3.5", "value": "43.70 ± 0.9", "unit": "pg/mL"},
      {"measurement": "IC50", "setting": "[11]; Homo sapiens, MTT, 72 h incubation, MCF7 breast, read-out: IC50, μM ± SEM MCF7", "value": "5.29 ± 0.175", "unit": "µM"},
      {"measurement": "SI (selectivity index) MCF7", "setting": "[11]; IC50 of RPE1 normal cell/IC50 of MCF7", "value": 7.5},
      {"measurement": "IC50", "setting": "[12]; Homo sapiens, RPE-1, MTT, normal RPE1 cell, read-out: IC50, μM ± SEM RPE1", "value": "39.9 ± 1.16", "unit": "µM"},
      {"measurement": "selectivity index (SI)", "setting": "[12]; IC50 against RPE1 compared to the tested cancer cell line(s), in words", "value": "high selectivity index"},
      {"measurement": "activity fold of sunitinib", "setting": "[13]", "value": 3.2, "unit": "fold"},
      {"measurement": "1/(observed property)", "setting": "[13]; 1/observed IC50 (μM), PaCa2", "value": 0.1904},
      {"measurement": "IC50", "setting": "[13]; Homo sapiens, PaCa-2, MTT, 72 h incubation, PaCa2 pancreatic, read-out: IC50, μM ± SEM PaCa2", "value": "5.25 ± 0.224", "unit": "µM"},
      {"measurement": "SI (selectivity index) PaCa2", "setting": "[13]; IC50 of RPE1 normal cell/IC50 of PaCa2", "value": 7.6}
    ]},
    {"smiles": "CC(C)Cc1ccc(C(C)C(=O)O)cc1", "note": "(centres unmarked) [Ibuprofen, reference compound]", "values": [
      {"measurement": "TNF-α % inhibition PaCa2", "setting": "[1]", "value": 42.0, "unit": "%"},
      {"measurement": "TNF-α pg/mL (± SEM) PaCa2", "setting": "[1]", "value": "64.8 ± 0.6", "unit": "pg/mL"},
      {"measurement": "TNF-α % inhibition MCF7", "setting": "[3]", "value": 7.8, "unit": "%"},
      {"measurement": "TNF-α pg/mL (± SEM) MCF7", "setting": "[3]", "value": "76.8 ± 2.0", "unit": "pg/mL"},
      {"measurement": "TNF-α % inhibition HCT116", "setting": "[6]", "value": 22.2, "unit": "%"},
      {"measurement": "TNF-α pg/mL (± SEM) HCT116", "setting": "[6]", "value": "74.5 ± 1.1", "unit": "pg/mL"}
    ]},
    {"smiles": "COc1ccc2c(c1)c(CC(=O)O)c(C)n2C(=O)c1ccc(Cl)cc1", "note": "[Indomethacin, reference compound]", "values": [
      {"measurement": "TNF-α % inhibition PaCa2", "setting": "[1]", "value": 32.6, "unit": "%"},
      {"measurement": "TNF-α pg/mL (± SEM) PaCa2", "setting": "[1]", "value": "75.3 ± 2.1", "unit": "pg/mL"},
      {"measurement": "TNF-α % inhibition MCF7", "setting": "[3]", "value": 22.9, "unit": "%"},
      {"measurement": "TNF-α pg/mL (± SEM) MCF7", "setting": "[3]", "value": "64.2 ± 1.6", "unit": "pg/mL"},
      {"measurement": "TNF-α % inhibition HCT116", "setting": "[6]", "value": 42.8, "unit": "%"},
      {"measurement": "TNF-α pg/mL (± SEM) HCT116", "setting": "[6]", "value": "54.8 ± 0.7", "unit": "pg/mL"}
    ]}
  ]
}
